Literature values as cited in patent US6681132B1, “Sodium magnetic reasonance imaging used in diagnosing tumors and assessing response to treatment” (The Trustees of Columbia University in the City of New York, priority 1999, dated 2004).

Tested on: L cells
Conditions: K+ loss exceeds Na+ gain; cited from earlier work

In the case of `O=C(O)c1nn(Cc2ccc(Cl)cc2Cl)c2ccccc12` [lonidamine], the “effect on total cellular monovalent cations” value is listed as “net reduction”.
